# ChEMBL document CHEMBL1201862, “PubChem BioAssay data set” (2004)
#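 Protocol summary: plate cells (96-well), add compound at 5 concentrations, incubate 48 h, interpolate endpoints linearly. GI50: concentration for 50% inhibition of growth.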 Active and inactive are the calls of the source. No stated cut-off is given here; in the data, active = GI50 up to about 1.1 µM and inactive = higher.
# Experiments:
# Test in all cases: NCI-60 cell line screen, 48 h
# Malme-3M = test system: Malme-3M
# NCI-H226 = test system: NCI-H226
# MOLT-4 = test system: MOLT-4
# OVCAR-5 = test system: OVCAR-5
# HCC 2998 = test system: HCC 2998
# A549 = test system: A549
# KM12 = test system: KM12
# RPMI-8226 = test system: RPMI-8226
# SK-MEL-28 = test system: SK-MEL-28
# OVCAR-8 = test system: OVCAR-8
# SR = test system: SR
# CCRF-CEM = test system: CCRF-CEM
# UACC-257 = test system: UACC-257
# SK-MEL-2 = test system: SK-MEL-2
# HCT-116 = test system: HCT-116
# CAKI-1 = test system: CAKI-1
# ACHN = test system: ACHN
# OVCAR-4 = test system: OVCAR-4
# DU-145 = test system: DU-145
# SNB-75 = test system: SNB-75
SMILES,GI50 (Malme-3M),GI50 (NCI-H226),GI50 (MOLT-4),GI50 (OVCAR-5),GI50 (HCC 2998),GI50 (A549),GI50 (KM12),GI50 (RPMI-8226),GI50 (SK-MEL-28),GI50 (OVCAR-8),GI50 (SR),GI50 (CCRF-CEM),GI50 (UACC-257),GI50 (SK-MEL-2),GI50 (HCT-116),GI50 (CAKI-1),GI50 (ACHN),GI50 (OVCAR-4),GI50 (DU-145),GI50 (SNB-75)
O=S1(=O)NN=C(NCc2ccc(F)cc2)c2ccccc21,> 89.3 µM (inactive),> 100 µM (inactive),> 36 µM (inactive),> 100 µM (inactive),> 67.6 µM (inactive),> 90.2 µM (inactive),> 100 µM (inactive),> 40.7 µM (inactive),> 100 µM (inactive),> 94.2 µM (inactive),> 44.7 µM (inactive),23.7 µM (inactive),69.2 µM (inactive),> 100 µM (inactive),> 100 µM (inactive),> 89.5 µM (inactive),95.5 µM (inactive),> 48 µM (inactive),> 100 µM (inactive),
C[C@]12CC(c3ccccc3O1)C(C(N)=O)C(=O)N2 (stereo partly specified),> 100 µM (inactive),> 100 µM (inactive),> 100 µM (inactive),> 100 µM (inactive),> 100 µM (inactive),> 100 µM (inactive),> 100 µM (inactive),> 100 µM (inactive),> 100 µM (inactive),> 100 µM (inactive),,> 100 µM (inactive),> 100 µM (inactive),> 100 µM (inactive),> 100 µM (inactive),> 100 µM (inactive),> 100 µM (inactive),> 100 µM (inactive),> 100 µM (inactive),> 100 µM (inactive)
Cc1ccc(C)c2c1n1c(=O)n(C)c(=O)n21,> 100 µM (inactive),> 100 µM (inactive),,> 100 µM (inactive),> 100 µM (inactive),> 100 µM (inactive),> 100 µM (inactive),> 100 µM (inactive),> 100 µM (inactive),> 100 µM (inactive),,> 100 µM (inactive),> 100 µM (inactive),> 100 µM (inactive),> 100 µM (inactive),> 100 µM (inactive),> 100 µM (inactive),> 100 µM (inactive),> 100 µM (inactive),> 100 µM (inactive)
COc1cc(N(C)C)c(OC)cc1/C=C\c1ccnc2ccccc12,4.86 µM (inactive),8.83 µM (inactive),3.4 µM (inactive),> 10 µM (inactive),3.62 µM (inactive),7.11 µM (inactive),0.46 µM (active),2.71 µM (inactive),1.86 µM (inactive),9.44 µM (inactive),,3.56 µM (inactive),3.73 µM (inactive),2.66 µM (inactive),3.09 µM (inactive),6.38 µM (inactive),6.12 µM (inactive),> 10 µM (inactive),3.46 µM (inactive),2.57 µM (inactive)
Cc1ccc(O)c(C2=NNC(c3cccc(Cl)c3)C2)c1 (stereo unspecified),37.8 µM (inactive),57.1 µM (inactive),34 µM (inactive),> 100 µM (inactive),,34.8 µM (inactive),20.6 µM (inactive),25.1 µM (inactive),,56.2 µM (inactive),28.9 µM (inactive),31.8 µM (inactive),35 µM (inactive),30 µM (inactive),34 µM (inactive),36.8 µM (inactive),30.1 µM (inactive),24.4 µM (inactive),86.1 µM (inactive),
O=[N+]([O-])/C=C/c1cn(CCCCCn2cc(/C=C/[N+](=O)[O-])c3ccccc32)c2ccccc12,3.54 µM (inactive),0.805 µM (active),3.05 µM (inactive),9.55 µM (inactive),1.04 µM (active),2.96 µM (inactive),1.69 µM (inactive),0.24 µM (active),1.12 µM (active),3.27 µM (inactive),0.973 µM (active),1.04 µM (active),3.27 µM (inactive),13.5 µM (inactive),0.283 µM (active),17.7 µM (inactive),4.66 µM (inactive),2.44 µM (inactive),2.19 µM (inactive),
O=C1CSC(c2c[nH]c3ccccc23)N1c1ccc(Cl)cc1 (stereo unspecified),,> 100 µM (inactive),> 100 µM (inactive),> 100 µM (inactive),> 100 µM (inactive),> 100 µM (inactive),> 100 µM (inactive),> 100 µM (inactive),> 100 µM (inactive),> 100 µM (inactive),,,> 100 µM (inactive),> 100 µM (inactive),> 100 µM (inactive),,> 100 µM (inactive),> 100 µM (inactive),> 100 µM (inactive),37.1 µM (inactive)
COC(=O)c1c(O)ccc2c1c1c(n2Cc2ccccc2Cl)C(=O)c2ccccc2C1=O,17 µM (inactive),17.7 µM (inactive),7.03 µM (inactive),19.5 µM (inactive),14.6 µM (inactive),8.69 µM (inactive),10.1 µM (inactive),5.98 µM (inactive),15.6 µM (inactive),16 µM (inactive),14.6 µM (inactive),8.38 µM (inactive),17.9 µM (inactive),17.4 µM (inactive),10.5 µM (inactive),13.7 µM (inactive),16.5 µM (inactive),2.93 µM (inactive),15.5 µM (inactive),
CC(=O)c1cc2ccccc2[n+]([O-])c1N,> 100 µM (inactive),> 100 µM (inactive),> 100 µM (inactive),> 100 µM (inactive),> 100 µM (inactive),> 100 µM (inactive),> 100 µM (inactive),,> 100 µM (inactive),> 100 µM (inactive),> 100 µM (inactive),> 100 µM (inactive),> 100 µM (inactive),> 100 µM (inactive),> 100 µM (inactive),> 100 µM (inactive),> 100 µM (inactive),> 100 µM (inactive),> 100 µM (inactive),
O=C(CN1CCCC1)Nc1ccc2c(c1)C1Oc3ccccc3CC1CO2 (stereo unspecified),16.7 µM (inactive),> 100 µM (inactive),31.4 µM (inactive),30.9 µM (inactive),16.8 µM (inactive),41.7 µM (inactive),43.4 µM (inactive),25.1 µM (inactive),,97.5 µM (inactive),33.3 µM (inactive),47.2 µM (inactive),21.2 µM (inactive),23.9 µM (inactive),33 µM (inactive),49.3 µM (inactive),,,> 100 µM (inactive),
O=C(O)c1ccc(C(c2c(O)oc3ccccc3c2=O)c2c(O)oc3ccccc3c2=O)cc1,,,> 100 µM (inactive),86.3 µM (inactive),29.3 µM (inactive),> 100 µM (inactive),> 100 µM (inactive),1.02 µM (active),15.2 µM (inactive),> 100 µM (inactive),44.3 µM (inactive),25.2 µM (inactive),> 100 µM (inactive),> 100 µM (inactive),> 100 µM (inactive),> 100 µM (inactive),> 100 µM (inactive),,> 100 µM (inactive),
